The results in this text go back to ChEMBL document CHEMBL4813965, “Discovery of CYR715: A novel carboxylic acid-containing soluble guanylate cyclase stimulator” (Bioorg Med Chem Lett, 2021).

Converted amounts (≈) assume the structure as drawn.

The nature of series [1]: Drug metabolism in rat assessed as formation of reactive and migrated acyl glucuronides metabolites. Format: ADME.
Series [2] is described as follows: Apparent permeability across apical to basolateral side of dog MDR1-MDCK2 cells. Format: ADME, cell-based, Canis lupus familiaris, MDCK-II. To be noted: MDCK-MDR1.
Series [3] can be described thus: AUC in rat at 1 mg/kg, po. The note with it: in vivo. Type of series: ADME, organism-based. Also noted: dose 1 mg/kg.
The nature of series [4]: Solubility of the compound at pH 7.0. Format: physicochemical. To be noted: buffer.
Series [5] in a line: Oral bioavailability in rat at 1 mg/kg. The note with it: in vivo. Format: ADME, organism-based.

`O=C(O)[C@H]1CCCCN1c1nc(-c2cc(-c3ccon3)n(Cc3ccccc3F)n2)ncc1F`: the Drug metabolism result in series [1] is given as “Metabolite_Detected”.

By Papp A→B is commonly meant how fast a substance crosses the layer from the apical side. The AUC is the area under the concentration-time curve, a measure of exposure. Low readings indicate low exposure, high ones high exposure. One may read the solubility as how much of the substance goes into solution per volume. One may read the bioavailability as the share of a dose that reaches the circulation, judged against a reference dose that is usually intravenous. A high value points to much systemic uptake. For the compound `C[C@@H]1CCCN(c2nc(-c3cc(-c4ccon4)n(Cc4ccccc4F)n3)ncc2F)[C@@H]1C(=O)O`, in series [2], the Papp A→B amounted to 40 ×10⁻⁶ cm/s. This compound also registered an AUC in series [3] of 3700 ng·h/mL. The compound further showed a solubility in series [4] of 21 µg/mL (≈ 43.7 µM). Besides, the Drug metabolism entry in series [1] is on record as “Metabolite_Detected”. In addition, the bioavailability in series [5] was above 100%.

As for `C[C@H]1CCCN(c2nc(-c3cc(-c4ccon4)n(Cc4ccccc4F)n3)ncc2F)[C@H]1C(=O)O`, the Drug metabolism result in series [1] is “Metabolite_Detected”.

For `O=C(O)[C@@H]1CCCCN1c1nc(-c2cc(-c3ccon3)n(Cc3ccccc3F)n2)ncc1F`, in series [1], the Drug metabolism entry was “Metabolite_Detected”.

In the case of `O=C(O)C1CCN(c2nc(-c3cc(-c4ccon4)n(Cc4ccccc4F)n3)ncc2F)CC1`, the Drug metabolism entry in series [1] is reported as “Metabolite_Detected”.

In the case of `Oc1nc(-c2cc(-c3ccon3)n(Cc3ccccc3F)n2)ncc1F`, in series [2], the apical-to-basolateral permeability (Papp A→B) was 24 ×10⁻⁶ cm/s. The compound further displayed an AUC in series [3] of 25000 ng·h/mL. This compound also came in with a solubility in series [4] of 3 µg/mL (≈ 8.44 µM).

With `O=C(O)C1CCCN(c2nc(-c3cc(-c4ccon4)n(Cc4ccccc4F)n3)ncc2F)C1` (racemic), in series [1], the Drug metabolism result was “Metabolite_Detected”.
